Legend:
[1] = test system: leaf disks from water control plant 101; assay: Leaf disk AEC screen, water control plant 101; format: cell-based, Nicotiana tabacum SR1
Method: (§1) Plant tissue was initially screened for expression of the introduced dap A gene by evaluating resistance to the lysine analog S(2-aminoethyl)cysteine(AEC). AEC is a potent inhibitor of dihydrodipicolinic acid synthase of plants, but the bacterial DHDPS is much less sensitive to it. Leaf disks were prepared from surface-sterilized leaves as described in the transformation protocol. The disks were placed, (four disks per plate, two plates per treatment) on shooting medium supplemented with 1 mM L-arginine and AEC at 0, 0.1, 0.2 or 0.4 mM. Plates containing shooting medium supplemented with 75 μg/ml kanamycin were included for each plant tested to check the selectable marker. After one week at 26° C. in the light, the individual leaf disks were weighed and the average fresh weight and standard deviation were determined for each treatment.

[2] = test system: seedlings of self-pollinated 101; assay: AEC resistance in seedlings, progeny of 101; format: in vivo, Nicotiana tabacum SR1; conditions: Nicotiana tabacum, 336 h, two weeks postplating, read-out: Avg. Root Length
Method: (§2) Tobacco plant 327 flowered and was allowed to self-pollinate and produce seed. Mature, dry seed was collected, surface-sterilized with 10% bleach, and rinsed well with sterile water. Seeds were plated (50 seeds per plate, two plates per treatment) on gridded germination plates (1/4 MS salts, 2.5 gm/l Gelrite) containing AEC at 0, 1, 10, 30, 100 and 300 μM AEC. Seeds from self-pollinated 101 were treated identically as controls. All seeds germinated in 3-4 days. After 10 days, the number of green seedlings on each plate was counted. After two weeks, the seedlings were gently pulled from the Gelrite and root lengths were measured.

[3] = test system: leaf disks from plant 327; assay: Leaf disk AEC screen, dap A+ plant 327; format: cell-based, Nicotiana tabacum SR1
Method: as §1

[4] = test system: seedlings of self-pollinated 327; assay: AEC resistance in seedlings, progeny of 327; format: in vivo, Nicotiana tabacum SR1; conditions: Nicotiana tabacum, 336 h, two weeks postplating, read-out: Avg. Root Length
Method: as §2

[5] = test system: Dihydrodipicolinic acid synthase; conditions: in vitro; cited from earlier work
[6] = molecular target: T1, DHDP synthase activity in NT-SR1 leaves (Nicotiana tabacum, UniProt Q42948); assay: DHDP synthase activity (o-aminobenzaldehyde assay) in leaf extracts of seed-grown NT-SR1; format: biochemical; conditions: NT-SR1 leaf extract
T1 construct: Young leaves of 327 and seed-grown NT-SR1 plants were extracted as follows; from tissue; host or cells: young leaves of seed-grown NT-SR1 plants, 40-66% ammonium sulfate fraction of the leaf extract
T1 sequence (Q42948 34-359): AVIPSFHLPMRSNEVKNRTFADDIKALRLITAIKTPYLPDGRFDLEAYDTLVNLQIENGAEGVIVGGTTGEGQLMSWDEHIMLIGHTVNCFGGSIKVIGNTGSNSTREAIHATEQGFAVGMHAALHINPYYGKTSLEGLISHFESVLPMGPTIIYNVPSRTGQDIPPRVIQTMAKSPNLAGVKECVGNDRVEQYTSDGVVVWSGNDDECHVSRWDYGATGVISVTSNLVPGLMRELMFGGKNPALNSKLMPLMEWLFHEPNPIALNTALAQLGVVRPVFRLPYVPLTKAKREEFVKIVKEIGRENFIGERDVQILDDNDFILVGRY
Method: (§3) Young leaves of 327 and seed-grown NT-SR1 plants were extracted as follows. One to two grams of deribbed leaves were ground at 4° C. in 2 ml extraction buffer (0.1M potassium phosphate (pH 7.5 at 4° C.), 2 mM EDTA, 1 mM β-mercaptoethanol, 10 mM sodium pyruvate) in the presence of 0.14 gm polyvinylpyrrolidone per gram of tissue. The extract was filtered through Miracloth (Calbiochem) and then centrifuged for 10 minutes at 8000×g (4° C.). The supernatant was slowly brought to 40% saturation by adding finely ground solid ammonium sulfate at 4° C. with gentle stirring. The precipitate was removed by centrifugation. The supernatant was brought to 66% ammonium sulfate saturation and the 40-66% precipitate was collected by centrifugation as before. The pellet was resuspended in column buffer (50 mM Tris-HCl (pH 7.5 at 4° C.), 1 mM EDTA, 10 mM sodium pyruvate, 10% glycerol) and passed through a Sephadex G-25 column (Sigma) to desalt.
(§4) Protein concentrations were determined by the dye-binding method of Bradford (REF) using bovine serum albumin fraction V powder in distilled water as the standard.
(§5) Dihydrodipicolinic acid synthase activity was monitored using the o-aminobenzaldehyde (ABA) assay (Yugari et al., J. Biol. Chem., 240, 4710-4716 (1965)). […] The pink color was allowed to develop for one hour at 25° C. and then the optical density was measured at 520 nm.

[7] = test system: DHDP synthase activity in the leaves of 327; assay: DHDP synthase activity (o-aminobenzaldehyde assay) in leaf extracts of 327; format: biochemical, Nicotiana tabacum SR1 (E. coli dap A gene); conditions: 327 leaf extract
Method: as §3, §4, §5

NCCSCC(N)C(=O)O (stereo not drawn) [AEC, S(2-aminoethyl)cysteine]
activity at 100 µM ([1]; Nicotiana tabacum, foliar, 168 h, AEC 0.1 mM, plant 101 leaf disks, after one week, read-out: Fresh Weight): 32%
activity at 200 µM ([1]; Nicotiana tabacum, foliar, 168 h, AEC 0.2 mM, plant 101 leaf disks, after one week, read-out: Fresh Weight): 15%
activity at 400 µM ([1]; Nicotiana tabacum, foliar, 168 h, AEC 0.4 mM, plant 101 leaf disks, after one week, read-out: Fresh Weight): 10%
Leaf disk growth in the presence of AEC ([1]; control plants): strongly inhibited
Leaf disk appearance ([1]; control plants, medium containing at least 0.2 mM AEC): brown and shriveled
activity at 1 µM ([2]; AEC 1 μM): 46%
activity at 3 µM ([2]; AEC 3 μM): 33%
activity at 10 µM ([2]; AEC 10 μM): 27%
activity at 30 µM ([2]; AEC 30 μM): 18%
activity at 100 µM ([2]; AEC 100 μM): 0%
activity at 100 µM ([3]; Nicotiana tabacum, foliar, 168 h, AEC 0.1 mM, plant 327 leaf disks, after one week, read-out: Fresh Weight): 88%
activity at 200 µM ([3]; Nicotiana tabacum, foliar, 168 h, AEC 0.2 mM, plant 327 leaf disks, after one week, read-out: Fresh Weight): 81%
activity at 400 µM ([3]; Nicotiana tabacum, foliar, 168 h, AEC 0.4 mM, plant 327 leaf disks, after one week, read-out: Fresh Weight): 71%
Leaf disk growth in the presence of AEC ([3]; putative dap A+ plants): remain green and growing
activity at 1 µM ([4]; AEC 1 μM): 111%
activity at 3 µM ([4]; AEC 3 μM): 87%
activity at 10 µM ([4]; AEC 10 μM): 51%
activity at 30 µM ([4]; AEC 30 μM): 46%
activity at 100 µM ([4]; AEC 100 μM): 21%

NCCCC[C@H](N)C(=O)O [L-lysine]
Lower sensitivity of E. coli DHDPS to inhibition by lysine compared to the same enzyme from plants [5]: at least 200 fold
inhibition at 100 µM ([6]; 100 μM L-lysine): 87%
Inhibition of DHDP synthase activity ([6]; 500 μM L-lysine): no activity could be detected
Inhibition of DHDP synthase activity ([7]; 100 μM L-lysine): completely resistant
Inhibition of DHDP synthase activity ([7]; 500 μM L-lysine): 14%

— US5258300A, “Method of inducing lysine overproduction in plants” (Molecular Genetics Research and Development Limited …, priority 1988, dated 1993)
